We go through five molecules from patent publication US6399051B2, “Method and agents for permanently styling hair, with a base consisting of N,N-disubstituted mercaptoacetamides” (priority 1997, dated 2002).

For series [1] the following is noted: 20 min at 50° C., relative to glycerol monothioglycolate solution pH 9 = 100%; for Standardized Wave Stability WSN pH = 7: waving solution pH 7, 87 mmol reducing agent/100 g; for Standardized Wave Stability WSN pH = 8: waving solution pH 8, 87 mmol reducing agent/100 g; for Standardized Wave Stability WSN pH = 9: waving solution pH 9, 87 mmol reducing agent/100 g.

Turning to Thiolactic acid [reference compound], in series [1], the “Standardized Wave Stability WSN pH = 7” value is 57%, the “Standardized Wave Stability WSN pH = 8” value amounted to 50% and the “Standardized Wave Stability WSN pH = 9” value worked out at 70%.
Regarding `CCN(CCO)C(=O)CS` [Mercaptoacetamide 4, N-Ethyl-N-2′-hydroxyethylmercaptoacetamide], the pKa (as a rule, the pH at which an ionisable group is half protonated) in “pKa determination (H2O)” is recorded as 7.604.
The molecule `CCCCN(C)C(=O)CS` [Mercaptoacetamide 3, N-Butyl-N-methylmercaptoacetamide] gave a pKa in the series “pKa determination (H2O)” of 7.873. In series [1], the “Standardized Wave Stability WSN pH = 7” value is recorded as 63%, the “Standardized Wave Stability WSN pH = 8” value came to 67% and the “Standardized Wave Stability WSN pH = 9” value is on record as 87%.
With `CCN(CC)C(=O)CS` [Mercaptoacetamide 2, N,N-Diethylmercaptoacetamide], in series [1], the “Standardized Wave Stability WSN pH = 7” value was found to be 83%, the “Standardized Wave Stability WSN pH = 8” value is on record as 98% and the “Standardized Wave Stability WSN pH = 9” value came out at 106%.
Taken in the same sequence, the figures for `CN(C)C(=O)CS` [Mercaptoacetamide 1, N,N-Dimethylmercaptoacetamide] were 81%, 98% and 98%.
